Results taken from patent publication US7776848B2, “Spirocyclic cyclohexane compounds” (Gruenenthal GmbH, priority 2004, dated 2010).
Structures can show the parent of a compound that is named as a salt.

Experiments:
human μ-opiate receptor = target: T1, human μ-opiate receptor (Homo sapiens, UniProt P35372); test: Measurement of μ binding ([3H]-naloxone displacement, SPA, CHO-K1 membrane preparation); conditions: 1.5 h; % inhibition of specific [3H]-naloxone binding at 1 μM test substance
T1 construct: purchased NEN, Zaventem, Belgium RB-HOM; host or cells: CHO-K1 cells (membrane preparation)
T1 sequence (P35372 whole entry): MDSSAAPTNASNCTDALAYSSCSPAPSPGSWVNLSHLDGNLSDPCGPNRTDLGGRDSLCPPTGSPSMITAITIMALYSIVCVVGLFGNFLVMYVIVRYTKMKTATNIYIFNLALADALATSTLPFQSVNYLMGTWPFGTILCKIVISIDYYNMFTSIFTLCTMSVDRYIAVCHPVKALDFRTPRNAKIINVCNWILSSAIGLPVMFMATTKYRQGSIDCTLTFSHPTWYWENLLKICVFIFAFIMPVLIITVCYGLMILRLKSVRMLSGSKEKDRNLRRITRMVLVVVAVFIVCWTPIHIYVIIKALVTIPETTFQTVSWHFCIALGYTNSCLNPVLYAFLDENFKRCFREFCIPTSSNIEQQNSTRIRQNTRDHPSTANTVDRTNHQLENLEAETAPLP
Experimental: c) Measurement of μ Binding
The receptor affinity for the human μ-opiate receptor was determined in a homogeneous batch on microtitre plates. To that end, serial dilutions of the substituted spirocyclic cyclohexane derivative to be tested were incubated for 90 minutes at room temperature with a receptor membrane preparation (15-40 μg of protein per 250 μl of incubation batch) of CHO-K1 cells, which express the human μ-opiate receptor (RB-HOM receptor membrane preparation from NEN, Zaventem, Belgium), in the presence of 1 nmol/l of the radioactive ligand [^3H]-naloxone (NET719, NEN, Zaventem, Belgium) and 1 mg of WGA-SPA beads (wheatgerm agglutinin SPA beads from Amersham/Pharmacia, Freiburg, Germany) in a total volume of 250 μl. The incubation buffer used was 50 mmol/l of Tris-HCl supplemented with 0.05 wt. % sodium azide and with 0.06 wt. % bovine serum albumin. In order to determine non-specific binding, 25 μmol/l of naloxone were additionally added. When the ninety-minute incubation time was complete, the microtitre plates were centrifuged off for 20 minutes at 1000 g and the radioactivity was measured in a β-counter (Microbeta-Trilux, PerkinElmer Wallac, Freiburg, Germany). The percentage displacement of the radioactive ligand from its binding to the human μ-opiate receptor at a concentration of the test substances of 1 μmol/l was determined and stated as the percentage inhibition (% inhibition) of specific binding. In some cases, on the basis of the percentage displacement by different concentrations of the compounds of formula I to be tested, IC50 inhibitory concentrations, which effect 50% displacement of the radioactive ligand, were calculated. Ki values for the test substances were obtained by conversion by means of the Cheng-Prusoff equation.

[1] = target: T2, 5HT uptake (serotonin reuptake), synaptosomes from hypothalamus of male rat brains (Rattus norvegicus, UniProt P31652); test: Serotonin reuptake inhibition (5HT uptake inhibition) in rat brain synaptosomes; assay type: biochemical
T2 construct: synaptosomes are freshly isolated from areas of rat brain; from tissue; host or cells: synaptosomes (P2 fraction) from hypothalamus of male rat brains
T2 sequence (P31652 whole entry): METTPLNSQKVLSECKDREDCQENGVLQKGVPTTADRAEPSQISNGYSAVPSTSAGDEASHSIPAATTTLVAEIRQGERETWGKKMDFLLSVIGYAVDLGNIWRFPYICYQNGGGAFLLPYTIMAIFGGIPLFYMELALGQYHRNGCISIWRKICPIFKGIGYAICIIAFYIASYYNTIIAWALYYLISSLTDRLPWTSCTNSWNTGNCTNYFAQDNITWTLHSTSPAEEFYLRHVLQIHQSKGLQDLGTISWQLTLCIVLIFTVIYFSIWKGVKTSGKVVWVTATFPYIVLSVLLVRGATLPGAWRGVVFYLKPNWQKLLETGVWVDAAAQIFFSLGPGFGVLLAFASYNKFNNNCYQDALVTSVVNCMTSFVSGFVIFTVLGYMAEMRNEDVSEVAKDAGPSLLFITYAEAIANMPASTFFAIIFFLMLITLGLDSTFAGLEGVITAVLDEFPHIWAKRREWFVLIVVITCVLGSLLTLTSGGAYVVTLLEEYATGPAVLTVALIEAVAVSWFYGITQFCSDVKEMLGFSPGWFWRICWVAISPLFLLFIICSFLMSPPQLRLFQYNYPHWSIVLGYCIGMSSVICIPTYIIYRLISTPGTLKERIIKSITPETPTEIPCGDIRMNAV
Experimental: Biological Testing a) Studies of Serotonin Reuptake Inhibition (5HT Uptake Inhibition)
In order to be able to carry out these in vitro studies, synaptosomes are freshly isolated from areas of rat brain. A so-called “P2” fraction is used in each case, which is prepared according to the procedure of Gray and Whittaker (E. G. Gray and V. P. Whittaker (1962) J. Anat. 76, 79-88). For 5HT uptake, these vesicular particles are isolated from the hypothalamus of male rat brains. A detailed description of the method can be found in the literature (M. Ch. Frink, H.-H. Hennies, W. Englberger, M. Haurand and B. Wilffert (1996) Arzneim.-Forsch./Drug Res. 46 (III), 11, 1029-1036).

[2] = target: T3, NA uptake (noradrenaline reuptake), synaptosomes from hypothalamus of male rat brains (Rattus norvegicus, UniProt Q63380); test: Noradrenaline reuptake inhibition (NA uptake inhibition) in rat brain synaptosomes; assay type: biochemical
T3 construct: synaptosomes are freshly isolated from areas of rat brain; from tissue; host or cells: synaptosomes (P2 fraction) from hypothalamus of male rat brains
T3 sequence (Q63380 1-617): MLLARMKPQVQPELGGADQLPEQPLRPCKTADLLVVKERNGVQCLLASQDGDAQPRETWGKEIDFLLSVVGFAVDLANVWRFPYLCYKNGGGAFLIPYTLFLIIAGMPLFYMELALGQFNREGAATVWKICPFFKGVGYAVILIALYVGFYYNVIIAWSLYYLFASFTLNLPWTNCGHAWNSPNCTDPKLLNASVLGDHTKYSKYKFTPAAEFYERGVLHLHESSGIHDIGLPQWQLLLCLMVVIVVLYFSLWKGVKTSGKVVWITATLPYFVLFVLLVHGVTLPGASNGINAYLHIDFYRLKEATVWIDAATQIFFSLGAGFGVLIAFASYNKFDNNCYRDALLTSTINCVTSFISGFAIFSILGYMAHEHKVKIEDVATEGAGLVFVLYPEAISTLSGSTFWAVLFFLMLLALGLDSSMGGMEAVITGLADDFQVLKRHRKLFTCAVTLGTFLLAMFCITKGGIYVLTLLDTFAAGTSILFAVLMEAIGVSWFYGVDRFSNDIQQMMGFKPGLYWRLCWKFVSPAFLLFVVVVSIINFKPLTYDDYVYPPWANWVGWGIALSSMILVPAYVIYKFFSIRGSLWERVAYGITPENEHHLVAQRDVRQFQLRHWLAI
Experimental: b) Studies of Noradrenaline Reuptake Inhibition (NA Uptake Inhibition)
In order to be able to carry out these in vitro studies, synaptosomes are freshly isolated from areas of rat brain. A so-called “P2” fraction is used in each case, which is prepared according to the procedure of Gray and Whittaker (E. G. Gray and V. P. Whittaker (1962) J. Anat. 76, 79-88). For NA uptake, these vesicular particles are isolated from the hypothalamus of male rat brains. A detailed description of the method can be found in the literature (M. Ch. Frink, H.-H. Hennies, W. Englberger, M. Haurand and B. Wilffert (1996) Arzneim.-Forsch./Drug Res. 46 (III), 11, 1029-1036).

Structure (SMILES) | inhibition at 1 µM (human μ-opiate receptor) | inhibition at 10 µM [1] | inhibition at 10 µM [2]
COc1cccc(C2(O)CCC3(CC2CN(C)C)NCCc2c3[nH]c3ccccc23)c1 (stereo not drawn) [Example 1, 1,1-(2-(Dimethylaminomethyl)-3-hydroxy-3-(3-methoxyphenyl)pentamethylene)-3,4-dihydro-1H-2,9-diazafluorene dihydrochloride] | 40% | 44% | 43%
COc1cccc(C2(O)CCC3(CC2CN(C)C)c2[nH]c4ccccc4c2CCN3C(C)=O)c1 (stereo not drawn) [Example 2, 1,1-(2-(Dimethylaminomethyl)-3-hydroxy-3-(3-methoxyphenyl)pentamethylene)-2-acetyl-3,4-dihydro-1H-2,9-diazafluorene hydrochloride] | 65% | – | –
CN(C)CC1CC2(CCC1(O)c1ccccc1)OCCc1c2[nH]c2ccccc12 (stereo not drawn) [Example 4, 1,1-(2-(Dimethylaminomethyl)-3-hydroxy-3-phenyl-pentamethylene)-1,3,4,9-tetrahydro-pyrano[3,4-b]indole sesquicitrate] | 74% | 84% | –
CN(C)CC1CC2(CCC1(O)c1ccccc1)OCCc1c2oc2ccccc12 (stereo not drawn) [Example 5, 1,1-(2-(Dimethylaminomethyl)-3-hydroxy-3-phenyl-pentamethylene)-1,3,4,9-tetrahydro-pyrano[3,4-b]benzofuran citrate] | 58% | 84% | 51%
CN(C)CC1CC2(CCC1(O)c1cccc(F)c1)OCCc1c2oc2ccccc12 (stereo not drawn) [Example 8, 1,1-(2-(Dimethylaminomethyl)-3-hydroxy-3-(3-fluorophenyl)-pentamethylene)-1,3,4,9-tetrahydro-pyrano[3,4-b]benzofuran citrate] | 73% | 88% | 66%
Cc1ccccc1C1(O)CCC2(CC1CN(C)C)OCCc1c2oc2ccccc12 (stereo not drawn) [Example 12, 1,1-(2-(Dimethylaminomethyl)-3-hydroxy-3-(2-methylphenyl)-pentamethylene)-1,3,4,9-tetrahydro-pyrano[3,4-b]benzofuran citrate] | 56% | 68% | 41%
CN(C)CC1CC2(CCC1(O)c1cccc(F)c1)OCCc1c2[nH]c2ccccc12 (stereo not drawn) [Example 27, 1,1-(2-(Dimethylaminomethyl)-3-hydroxy-3-(3-fluorophenyl)-pentamethylene)-1,3,4,9-tetrahydro-pyrano[3,4-b]indole hydrochloride] | 64% | 83% | –
CN(C)CC1CC2(CCC1(O)c1ccccc1)NCCc1c2[nH]c2ccccc12 (stereo not drawn) [Example 28, 1,1-(2-(Dimethylaminomethyl)-3-hydroxy-3-phenyl-pentamethylene)-3,4-dihydro-1H-2,9-diazafluorene citrate] | 57% | – | –
CSc1ccc(C2(O)CCC3(CC2CN(C)C)NCCc2c3[nH]c3cc(F)ccc23)cc1 (stereo not drawn) [Example 34, 1,1-(2-(Dimethylaminomethyl)-3-hydroxy-3-(4-methylthiophenyl)-pentamethylene)-7-fluoro-3,4-dihydro-1H-2,9-diazafluorene citrate] | 54% | 65% | 57%
